18 compounds from PubChem BioAssay AID330 (DTP/NCI, 2004) can be followed below.

The test concerns P388 leukemia ip, CD2F1 mice, survival T/C. Kind of test: NCI In Vivo Anticancer Drug Screen. Data for tumor model P388 Leukemia (intraperitoneal) in CD2F1 (CDF1) mice. The note with it: endpoint: median survival time, higher = longer survival. Put shortly: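 Mice carrying the transplanted tumor received test compound or vehicle. Survival was recorded in each group, and the value is the treated-group measurement divided by that of the vehicle-treated control group.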

The mark [1] stands for this setting: dose: 100.0 mg/kg/injection, schedule: Q04DX003 (ip), vehicle: Klucel (hydroxypropylcellulose) (HPC).
Setting [2] is: dose: 200.0 mg/kg/injection, schedule: Q04DX003 (ip), vehicle: Klucel (hydroxypropylcellulose) (HPC).
The mark [3] stands for this setting: dose: 400.0 mg/kg/injection, schedule: Q04DX003 (ip), vehicle: Klucel (hydroxypropylcellulose) (HPC).

Values joined by “and” are separate entries in the source; they are usually repeats but may differ in a detail not shown here. Equal values may be shown once. Toxic doses and inconclusive results are not listed.

With `C(/C=C/c1cc2cc(C3=NCCN3)ccc2o1)=C\c1ccc(C2=NCCN2)cc1`, the T/C was 114 % of control (dose: 100.0 mg/kg/injection, schedule: Q04DX003 (ip), vehicle: saline); 119 % of control (dose: 200.0 mg/kg/injection, schedule: Q04DX003 (ip), vehicle: saline); 118 % of control (dose: 400.0 mg/kg/injection, schedule: Q04DX003 (ip), vehicle: saline).
With `C/C=C1\CN2C3CC45c6cc(OC)c(OC)cc6N(C)C4(O3)C2CC1C5(COC(=O)c1cc(OC)c(OC)c(OC)c1)C(=O)OC` (centres undefined), the T/C reads like this: (dose: 11.5 mg/kg/injection, schedule: Q01DX005 (ip), vehicle: acid diluted with saline) 98 % of control; (dose: 23.0 mg/kg/injection, schedule: Q01DX005 (ip), vehicle: acid diluted with saline) 100 % of control; (dose: 46.0 mg/kg/injection, schedule: Q01DX005 (ip), vehicle: acid diluted with saline) 110 % of control; (dose: 92.0 mg/kg/injection, schedule: Q01DX005 (ip), vehicle: acid diluted with saline) 100 % of control.
As for `CCCCCCCCN1C(=O)c2ccccc2C1=O`, the T/C was 109 % of control (dose: 25.0 mg/kg/injection, schedule: Q01DX009 (ip), vehicle: other); 103 % of control (dose: 50.0 mg/kg/injection, schedule: Q01DX009 (ip), vehicle: other); 109 % of control (dose: 100.0 mg/kg/injection, schedule: Q01DX009 (ip), vehicle: other); 98 % of control (dose: 200.0 mg/kg/injection, schedule: Q01DX009 (ip), vehicle: other).
As for `Cc1nc(C)c2c(C)[nH]c(-c3ccccc3)c2n1`, the T/C reads like this: (dose: 25.0 mg/kg/injection, schedule: Q04DX002 (ip), vehicle: Klucel (hydroxypropylcellulose) (HPC)) 102 % of control; (dose: 50.0 mg/kg/injection, schedule: Q04DX002 (ip), vehicle: Klucel (hydroxypropylcellulose) (HPC)) 101 % of control; (dose: 100.0 mg/kg/injection, schedule: Q04DX002 (ip), vehicle: Klucel (hydroxypropylcellulose) (HPC)) 108 % of control; (dose: 200.0 mg/kg/injection, schedule: Q04DX002 (ip), vehicle: Klucel (hydroxypropylcellulose) (HPC)) 104 % of control.
On to `O=C(/C=C/c1c(-c2ccccc2)[nH]c2ccccc12)c1ccccc1[N+](=O)[O-]`, for which the T/C is 95 % of control (dose: 60.0 mg/kg/injection, schedule: Q01DX005 (ip), vehicle: saline with Tween-80); 96 % of control (dose: 120.0 mg/kg/injection, schedule: Q01DX005 (ip), vehicle: saline with Tween-80); 92 % of control (dose: 240.0 mg/kg/injection, schedule: Q01DX005 (ip), vehicle: saline with Tween-80).
`COc1ccc2c(c1OC(C)=O)-c1cc(OC(C)=O)cc3c1C(C2)N(C(=O)CBr)CC3` (centres undefined): the T/C (dose: 6.25 mg/kg/injection, schedule: Q01DX009 (ip), vehicle: saline with Tween-80) is 104 % of control and the T/C (dose: 12.5 mg/kg/injection, schedule: Q01DX009 (ip), vehicle: saline with Tween-80) is 104 % of control.
As for `O=C1CCC(Cc2ccc(I)cc2)C(=O)N1` (centres undefined), the T/C (dose: 100.0 mg/kg/injection, schedule: Q01DX001 (ip), vehicle: saline with Tween-80) was 101 % of control; the T/C (dose: 200.0 mg/kg/injection, schedule: Q01DX001 (ip), vehicle: saline with Tween-80) was 100 % of control; the T/C (dose: 400.0 mg/kg/injection, schedule: Q01DX001 (ip), vehicle: saline with Tween-80) is 95 % of control.
Consider `CCOc1ccc(N2CC(=O)N3CCCCN3C(=O)C2)cc1`, for which the T/C (dose: 50.0 mg/kg/injection, schedule: Q01DX005 (ip), vehicle: Klucel (hydroxypropylcellulose) (HPC)) is 112 % of control; the T/C (dose: 100.0 mg/kg/injection, schedule: Q01DX005 (ip), vehicle: Klucel (hydroxypropylcellulose) (HPC)) was 103 % of control; the T/C (dose: 200.0 mg/kg/injection, schedule: Q01DX005 (ip), vehicle: Klucel (hydroxypropylcellulose) (HPC)) was 105 % of control.
On to `CCn1c2ccccc2c2cc(N=Nc3ccc(N)c4ccccc34)ccc21`, for which the T/C is 97 % of control under setting [1], 101 % of control under setting [2] and 94 % of control under setting [3].
For `O=C(Cc1ccccc1)N1CCc2cc3c(cc2/C1=C/c1cc2c(cc1Br)OCO2)OCO3`, the T/C (dose: 12.5 mg/kg/injection, schedule: Q01DX001 (ip), vehicle: saline + alcohol) was 100 % of control; the T/C (dose: 25.0 mg/kg/injection, schedule: Q01DX001 (ip), vehicle: saline + alcohol) is 99 % of control; the T/C (dose: 50.0 mg/kg/injection, schedule: Q01DX001 (ip), vehicle: saline + alcohol) is 100 % of control.
In the case of `C=C(C)[C@@]12OC3(/C=C/C=C/CCCCC)O[C@@H]1[C@@H]1[C@@H]4O[C@]4(CO)[C@@H](O)[C@]4(O)C(=O)C(C)=C[C@H]4[C@@]1(O3)[C@H](C)[C@H]2OC(=O)c1ccccc1`, the T/C was 120 % of control (dose: 0.1 mg/kg/injection, schedule: Q01DX009 (ip), vehicle: saline + alcohol); 155 % of control (dose: 1.6 mg/kg/injection, schedule: Q01DX009 (ip), vehicle: saline + alcohol); 101 % of control (dose: 0.8 micrograms/kg/injection, schedule: Q01DX009 (ip), vehicle: saline + alcohol); 101 % of control (dose: 1.6 micrograms/kg/injection, schedule: Q01DX009 (ip), vehicle: saline + alcohol); 97 % of control (dose: 2.3 micrograms/kg/injection, schedule: Q01DX009 (ip), vehicle: saline + alcohol); 119 % of control (dose: 3.1 micrograms/kg/injection, schedule: Q01DX009 (ip), vehicle: saline + alcohol). For the same compound, the T/C (dose: 4.7 micrograms/kg/injection, schedule: Q01DX009 (ip), vehicle: saline + alcohol) is 100 % of control; the T/C (dose: 9.4 micrograms/kg/injection, schedule: Q01DX009 (ip), vehicle: saline + alcohol) was 97 % of control; the T/C (dose: 18.8 micrograms/kg/injection, schedule: Q01DX009 (ip), vehicle: saline + alcohol) was 95 % of control; the T/C (dose: 37.5 micrograms/kg/injection, schedule: Q01DX009 (ip), vehicle: saline + alcohol) was 100 % of control; the T/C (dose: 75.0 micrograms/kg/injection, schedule: Q01DX009 (ip), vehicle: saline + alcohol) was 119 % of control; the T/C (dose: 150.0 micrograms/kg/injection, schedule: Q01DX009 (ip), vehicle: saline + alcohol) is 114 % of control.
Take `O=C1C=CC(=O)C=C1`: the T/C by setting is: (dose: 3.12 mg/kg/injection, schedule: Q04DX003 (ip), vehicle: saline with Tween-80) 101 % of control; (dose: 6.25 mg/kg/injection, schedule: Q04DX003 (ip), vehicle: saline with Tween-80) 99 % of control.
Turning to `CCCCN1C(=O)/C(=C/c2ccc(OC)c(OC)c2OC)SC1=S`, the T/C by setting is: (dose: 50.0 mg/kg/injection, schedule: Q01DX009 (ip), vehicle: saline with Tween-80) 93 % of control; (dose: 100.0 mg/kg/injection, schedule: Q01DX009 (ip), vehicle: saline with Tween-80) 92 % of control; (dose: 200.0 mg/kg/injection, schedule: Q01DX009 (ip), vehicle: saline with Tween-80) 94 % of control.
On to `O=c1nc2n(CCO)c3ccccc3cc-2c(=O)[nH]1`, for which the T/C runs as follows: (dose: 60.0 mg/kg/injection, schedule: Q01DX005 (ip), vehicle: saline) 96 % of control; (dose: 120.0 mg/kg/injection, schedule: Q01DX005 (ip), vehicle: saline) 95 % of control.
Turning to `COC(=O)c1ncn(CCCO)c1O`, the T/C was 92 % of control (dose: 100.0 mg/kg/injection, schedule: Q01DX001 (ip), vehicle: saline); 100 % of control (dose: 200.0 mg/kg/injection, schedule: Q01DX001 (ip), vehicle: saline); 104 % of control (dose: 400.0 mg/kg/injection, schedule: Q01DX001 (ip), vehicle: saline).
Take `[O-][n+]1nc2ccccc2c2ccccc21`: the T/C was 105 % of control (dose: 12.5 mg/kg/injection, schedule: Q01DX009 (ip), vehicle: Klucel (hydroxypropylcellulose) (HPC)); 105 % of control (dose: 25.0 mg/kg/injection, schedule: Q01DX009 (ip), vehicle: Klucel (hydroxypropylcellulose) (HPC)); 105 % of control and 97 % of control (dose: 50.0 mg/kg/injection, schedule: Q01DX009 (ip), vehicle: Klucel (hydroxypropylcellulose) (HPC)); 102 % of control (dose: 100.0 mg/kg/injection, schedule: Q01DX009 (ip), vehicle: Klucel (hydroxypropylcellulose) (HPC)).
Take `COC(c1cc(C(O)(C(F)(F)F)C(F)(F)F)cc(C(OC)(C(F)(F)F)C(F)(F)F)c1)(C(F)(F)F)C(F)(F)F`: the T/C is 100 % of control under setting [1], 100 % of control under setting [2] and 92 % of control under setting [3].
Regarding `CC(=O)c1nc2c(N)nc(N)nc2nc1C`, the T/C is 96 % of control (dose: 25.0 mg/kg/injection, schedule: Q04DX003 (ip), vehicle: saline with Tween-80); 96 % of control (dose: 50.0 mg/kg/injection, schedule: Q04DX003 (ip), vehicle: saline with Tween-80); 96 % of control (dose: 100.0 mg/kg/injection, schedule: Q04DX003 (ip), vehicle: saline with Tween-80).
